Assay results: the NIST ThermoML archive (doi:10.1021/je800234h)

Experiment: mn = molality of the nth substance listed, in mol/kg
Settings: Liquid, Vibrating tube method

[Ca+2].[Cl-].[Cl-] [calcium chloride] + CCO
Settings | mass density [kg/m3]
298.15 K, 210 kPa, m1 = 1.55 | 901.58
298.15 K, 260 kPa, m1 = 1.266 | 881.44
298.15 K, 280 kPa, m1 = 0.1743 | 800.14
298.15 K, 480 kPa, m1 = 0.09327 | 793.4
298.15 K, 670 kPa, m1 = 0.9896 | 861.73
298.15 K, 1020 kPa, m1 = 0.4379 | 820.65
298.15 K, 1170 kPa, m1 = 0.6899 | 839.86
298.15 K, 5010 kPa, m1 = 0.6899 | 843.06
298.15 K, 5020 kPa, m1 = 1.55 | 905.41
298.15 K, 5030 kPa, m1 = 0.4379 | 824.03
298.15 K, 5060 kPa, m1 = 0.09327 | 797.34
298.15 K, 5060 kPa, m1 = 1.266 | 885.32
298.15 K, 6330 kPa, m1 = 0.9896 | 866.36
298.15 K, 6580 kPa, m1 = 0.1743 | 804.98
298.15 K, 10030 kPa, m1 = 0.09327 | 801.45
298.15 K, 10410 kPa, m1 = 1.55 | 909.48
298.15 K, 10450 kPa, m1 = 0.4379 | 828.43
298.15 K, 10830 kPa, m1 = 0.9896 | 869.87
298.15 K, 10850 kPa, m1 = 1.266 | 889.78
298.15 K, 11050 kPa, m1 = 0.6899 | 847.88
298.15 K, 11330 kPa, m1 = 0.1743 | 808.85
298.15 K, 14860 kPa, m1 = 1.266 | 892.71
298.15 K, 15090 kPa, m1 = 0.9896 | 873.05
298.15 K, 15120 kPa, m1 = 0.6899 | 850.99
298.15 K, 15240 kPa, m1 = 1.55 | 912.94
298.15 K, 15470 kPa, m1 = 0.09327 | 805.77
298.15 K, 15480 kPa, m1 = 0.4379 | 832.33
298.15 K, 15720 kPa, m1 = 0.1743 | 812.29
298.15 K, 20020 kPa, m1 = 0.9896 | 876.57
298.15 K, 20080 kPa, m1 = 1.266 | 896.35
298.15 K, 20130 kPa, m1 = 0.6899 | 854.64
298.15 K, 20260 kPa, m1 = 1.55 | 916.34
298.15 K, 20460 kPa, m1 = 0.4379 | 836.02
298.15 K, 20490 kPa, m1 = 0.1743 | 815.89
298.15 K, 20640 kPa, m1 = 0.09327 | 809.69
298.15 K, 25010 kPa, m1 = 1.55 | 919.38
298.15 K, 25130 kPa, m1 = 0.9896 | 880.03
298.15 K, 25310 kPa, m1 = 0.6899 | 858.24
298.15 K, 25390 kPa, m1 = 0.09327 | 813.15
298.15 K, 25410 kPa, m1 = 1.266 | 899.86
298.15 K, 25750 kPa, m1 = 0.4379 | 839.75
298.15 K, 25820 kPa, m1 = 0.1743 | 819.73
298.15 K, 30060 kPa, m1 = 1.266 | 902.74
298.15 K, 30110 kPa, m1 = 0.9896 | 883.22
298.15 K, 30120 kPa, m1 = 0.6899 | 861.41
298.15 K, 30190 kPa, m1 = 0.09327 | 816.48
298.15 K, 30420 kPa, m1 = 1.55 | 922.62
298.15 K, 30640 kPa, m1 = 0.4379 | 843.03
298.15 K, 31460 kPa, m1 = 0.1743 | 823.58
298.15 K, 34210 kPa, m1 = 0.6899 | 863.97
298.15 K, 35050 kPa, m1 = 1.55 | 925.22
298.15 K, 35340 kPa, m1 = 0.1743 | 826.11
298.15 K, 35510 kPa, m1 = 0.9896 | 886.47
298.15 K, 35640 kPa, m1 = 0.09327 | 820.09
298.15 K, 35830 kPa, m1 = 0.4379 | 846.33
298.15 K, 35910 kPa, m1 = 1.266 | 906.14
298.15 K, 39770 kPa, m1 = 0.6899 | 867.27
298.15 K, 39860 kPa, m1 = 0.9896 | 888.93
298.15 K, 39920 kPa, m1 = 0.09327 | 822.78
298.15 K, 39960 kPa, m1 = 1.55 | 927.8
298.15 K, 39970 kPa, m1 = 0.4379 | 848.83
298.15 K, 39980 kPa, m1 = 1.266 | 908.34
298.15 K, 40180 kPa, m1 = 0.1743 | 829.13
323.15 K, 150 kPa, m1 = 0.09327 | 771.32
323.15 K, 240 kPa, m1 = 0.1743 | 777.83
323.15 K, 310 kPa, m1 = 1.266 | 857.3
323.15 K, 450 kPa, m1 = 0.4379 | 798.42
323.15 K, 520 kPa, m1 = 1.55 | 876.88
323.15 K, 1060 kPa, m1 = 0.6899 | 817.18
323.15 K, 1570 kPa, m1 = 0.9896 | 839.21
323.15 K, 4980 kPa, m1 = 0.4379 | 802.82
323.15 K, 5060 kPa, m1 = 0.1743 | 782.74
323.15 K, 5070 kPa, m1 = 1.266 | 861.31
323.15 K, 5120 kPa, m1 = 1.55 | 881.08
323.15 K, 5160 kPa, m1 = 0.9896 | 842.61
323.15 K, 5240 kPa, m1 = 0.09327 | 776.5
323.15 K, 5300 kPa, m1 = 0.6899 | 821.26
323.15 K, 9780 kPa, m1 = 0.4379 | 807.29
323.15 K, 10060 kPa, m1 = 1.266 | 865.4
323.15 K, 10180 kPa, m1 = 0.6899 | 825.76
323.15 K, 10340 kPa, m1 = 0.09327 | 781.44
323.15 K, 10480 kPa, m1 = 0.1743 | 787.98
323.15 K, 10740 kPa, m1 = 1.55 | 885.92
323.15 K, 10890 kPa, m1 = 0.9896 | 847.78
323.15 K, 15020 kPa, m1 = 1.55 | 889.39
323.15 K, 15060 kPa, m1 = 0.4379 | 811.96
323.15 K, 15370 kPa, m1 = 0.6899 | 830.3
323.15 K, 15410 kPa, m1 = 1.266 | 869.66
323.15 K, 15420 kPa, m1 = 0.9896 | 851.64
323.15 K, 15620 kPa, m1 = 0.1743 | 792.67
323.15 K, 15780 kPa, m1 = 0.09327 | 786.43
323.15 K, 19980 kPa, m1 = 1.266 | 873.2
323.15 K, 20040 kPa, m1 = 0.4379 | 816.13
323.15 K, 20060 kPa, m1 = 0.9896 | 855.4
323.15 K, 20420 kPa, m1 = 1.55 | 893.5
323.15 K, 20640 kPa, m1 = 0.1743 | 796.99
323.15 K, 20640 kPa, m1 = 0.6899 | 834.66
323.15 K, 20980 kPa, m1 = 0.09327 | 790.93
323.15 K, 24860 kPa, m1 = 1.266 | 876.87
323.15 K, 24870 kPa, m1 = 0.4379 | 819.96
323.15 K, 25080 kPa, m1 = 0.9896 | 859.23
323.15 K, 25310 kPa, m1 = 1.55 | 896.97
323.15 K, 25390 kPa, m1 = 0.6899 | 838.36
323.15 K, 25680 kPa, m1 = 0.09327 | 794.77
323.15 K, 25870 kPa, m1 = 0.1743 | 801.22
323.15 K, 30020 kPa, m1 = 0.4379 | 823.82
323.15 K, 30070 kPa, m1 = 1.266 | 880.67
323.15 K, 30140 kPa, m1 = 1.55 | 900.16
323.15 K, 30180 kPa, m1 = 0.6899 | 841.89
323.15 K, 30380 kPa, m1 = 0.1743 | 804.64
323.15 K, 30390 kPa, m1 = 0.09327 | 798.4
323.15 K, 30450 kPa, m1 = 0.9896 | 863.05
323.15 K, 35150 kPa, m1 = 0.4379 | 827.42
323.15 K, 35160 kPa, m1 = 1.266 | 884.27
323.15 K, 35210 kPa, m1 = 0.9896 | 866.21
323.15 K, 35620 kPa, m1 = 1.55 | 903.49
323.15 K, 35760 kPa, m1 = 0.6899 | 845.73
323.15 K, 35870 kPa, m1 = 0.09327 | 802.35
323.15 K, 35920 kPa, m1 = 0.1743 | 808.56
323.15 K, 39760 kPa, m1 = 0.4379 | 830.46
323.15 K, 39860 kPa, m1 = 0.09327 | 805.04
323.15 K, 39870 kPa, m1 = 1.266 | 887.49
323.15 K, 39940 kPa, m1 = 0.1743 | 811.21
323.15 K, 39940 kPa, m1 = 0.6899 | 848.42
323.15 K, 39960 kPa, m1 = 0.9896 | 869.15
323.15 K, 39980 kPa, m1 = 1.55 | 905.92
348.15 K, 270 kPa, m1 = 1.266 | 833.32
348.15 K, 310 kPa, m1 = 1.55 | 852.87
348.15 K, 580 kPa, m1 = 0.9896 | 814.32
348.15 K, 620 kPa, m1 = 0.4379 | 774.92
348.15 K, 750 kPa, m1 = 0.09327 | 748.39
348.15 K, 750 kPa, m1 = 0.6899 | 792.97
348.15 K, 890 kPa, m1 = 0.1743 | 755.18
348.15 K, 5060 kPa, m1 = 0.9896 | 819.3
348.15 K, 5060 kPa, m1 = 1.266 | 837.99
348.15 K, 5080 kPa, m1 = 0.6899 | 797.87
348.15 K, 5090 kPa, m1 = 0.1743 | 760.16
348.15 K, 5130 kPa, m1 = 0.4379 | 780.06
348.15 K, 5210 kPa, m1 = 1.55 | 858.12
348.15 K, 5620 kPa, m1 = 0.09327 | 754.25
348.15 K, 10160 kPa, m1 = 1.55 | 863.08
348.15 K, 10240 kPa, m1 = 0.4379 | 785.57
348.15 K, 10310 kPa, m1 = 0.9896 | 824.81
348.15 K, 10410 kPa, m1 = 0.6899 | 803.58
348.15 K, 10450 kPa, m1 = 1.266 | 843.06
348.15 K, 10480 kPa, m1 = 0.1743 | 766.21
348.15 K, 10820 kPa, m1 = 0.09327 | 760.15
348.15 K, 14890 kPa, m1 = 0.6899 | 808.11
348.15 K, 15210 kPa, m1 = 0.9896 | 829.63
348.15 K, 15310 kPa, m1 = 0.4379 | 790.73
348.15 K, 15380 kPa, m1 = 0.09327 | 765.02
348.15 K, 15680 kPa, m1 = 1.55 | 868.22
348.15 K, 15760 kPa, m1 = 0.1743 | 771.77
348.15 K, 15840 kPa, m1 = 1.266 | 847.95
348.15 K, 19980 kPa, m1 = 1.266 | 851.59
348.15 K, 20060 kPa, m1 = 0.6899 | 813.01
348.15 K, 20430 kPa, m1 = 0.09327 | 770.09
